Experimental data from ChEMBL document CHEMBL4145467, “Glycogen synthase kinase-3 and its inhibitors: Potential target for various therapeutic conditions” (Eur J Med Chem, 2018).

How the values were obtained:
[1] = molecular target: T1, Glycogen synthase kinase-3 beta (Homo sapiens, UniProt P49841); experiment: Inhibition of recombinant GSK3-beta (unknown origin) assessed as decrease in phosphorylation of CREB at serine-129 in presence of ATP[gamma-33P] by filter binding assay
Target sequence in this assay (P49841 whole entry): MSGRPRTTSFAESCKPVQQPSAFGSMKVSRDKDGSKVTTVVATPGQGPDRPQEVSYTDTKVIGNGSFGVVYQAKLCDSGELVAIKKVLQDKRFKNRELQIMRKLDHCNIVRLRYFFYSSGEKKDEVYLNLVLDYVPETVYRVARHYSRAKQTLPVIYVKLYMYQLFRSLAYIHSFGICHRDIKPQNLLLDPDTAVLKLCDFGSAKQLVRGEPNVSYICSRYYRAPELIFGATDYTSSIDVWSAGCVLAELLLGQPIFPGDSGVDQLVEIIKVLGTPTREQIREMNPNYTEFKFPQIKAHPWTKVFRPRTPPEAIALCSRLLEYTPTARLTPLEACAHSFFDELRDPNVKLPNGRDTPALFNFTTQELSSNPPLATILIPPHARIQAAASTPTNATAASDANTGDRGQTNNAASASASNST

[2] = Inhibition of recombinant rabbit GSK-3beta assessed as decrease in PPI-2 phosphorylation in presence of 33P-ATP after 90 mins by topcount scintillation counting; design: species or system Oryctolagus cuniculus
[3] = Oral bioavailability in Zucker fa/fa rat at 10 mg/kg; format: ADME, organism-based; conditions: in vivo
[4] = system: MCF7; experiment: Cytotoxicity against human MCF7 cells assessed as reduction in cell viability after 68 hrs by MTT assay; format: functional, cell-based; conditions: MCF7, 68 h
[5] = molecular target: T1, Glycogen synthase kinase-3 beta; experiment: Inhibition of human GSK3beta using YRRAAVPPSPSLSRHSSPHQS(PO4)EDEEE-NH2 as substrate after 60 mins in presence of [33gammaP]-ATP by topcount method
Target sequence in this assay (P49841 whole entry): as the sequence (P49841 whole entry) above

[6] = system: HT-29; experiment: Cytotoxicity against human HT-29 cells at 20 uM after 2 days by MTT assay relative to control; format: functional
[7] = molecular target: T1, Glycogen synthase kinase-3 beta; experiment: Inhibition of GSK3beta (unknown origin) at 20 uM using FITC-RRRRAAEELDSRAGS(PO4)PQL as substrate after 10 mins by capillary electrophoresis relative to control
Target sequence in this assay (P49841 whole entry, looked up): as the sequence (P49841 whole entry) above

[8] = Inhibition of GSK-3beta (unknown origin)
[9] = species: Homo sapiens; experiment: Selectivity ratio of IC50 for PKCbeta2 (unknown origin) to IC50 for GSK3-beta (unknown origin)
[10] = molecular target: T2, Glycogen synthase kinase-3 alpha (Homo sapiens, UniProt P49840); experiment: Inhibition of human GSK3alpha using biotin-Ahx-AAAKRREILSRRP-S(PO3)YR-amide as substrate after 40 mins in presence of [33gammaP]-ATP by SPA
T2 sequence (P49840 whole entry): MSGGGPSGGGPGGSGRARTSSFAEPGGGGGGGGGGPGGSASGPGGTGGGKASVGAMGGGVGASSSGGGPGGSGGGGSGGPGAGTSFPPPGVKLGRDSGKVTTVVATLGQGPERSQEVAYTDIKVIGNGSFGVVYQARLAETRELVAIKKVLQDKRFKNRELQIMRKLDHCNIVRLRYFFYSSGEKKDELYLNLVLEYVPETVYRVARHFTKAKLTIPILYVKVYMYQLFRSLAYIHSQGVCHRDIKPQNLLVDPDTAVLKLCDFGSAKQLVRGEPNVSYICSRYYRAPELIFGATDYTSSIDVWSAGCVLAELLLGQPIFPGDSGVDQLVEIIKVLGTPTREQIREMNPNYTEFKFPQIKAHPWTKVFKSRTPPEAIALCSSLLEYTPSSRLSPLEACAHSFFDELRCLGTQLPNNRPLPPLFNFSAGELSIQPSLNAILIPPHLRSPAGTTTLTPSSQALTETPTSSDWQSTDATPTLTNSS

[11] = molecular target: Glycogen synthase kinase 3 beta (Sus scrofa, UniProt B2LUN4); experiment: Inhibition of pig brain GSK3beta using GS1 as substrate after 30 mins
Glycogen synthase kinase 3 beta, sequence (B2LUN4 whole entry): as the sequence (P49841 whole entry) above, with V40M, T59A, T392S, A400T, T402A, A411T counted along it

[12] = molecular target: T2, Glycogen synthase kinase-3 alpha; experiment: Inhibition of human GSK3alpha

Work on `CN(C)C1Cn2cc(C3=C(c4cnc5ccccn45)C(=O)NC3=O)c3cccc(c32)CN1C=O` (configuration not stated) yielded an IC50 [1] of 1.6 nM.
With `O=C1NC(=O)C(c2cn(CCCO)c3ncccc23)=C1c1cnccn1` the IC50 [2] was 25 nM.
Compound `CC(C)OC1Cn2cc(C3=C(c4cnc5ccccn45)C(=O)NC3=O)c3cccc(c32)CN1C=O` (configuration not stated) has an IC50 [1] of 1.3 nM.
`O=CN1Cc2cc(F)cc3c(C4=C(c5cnc6ccccn56)C(=O)NC4=O)cn(c23)CC1N1CCCCC1` (configuration not stated) gave an IC50 [1] of 1.1 nM and a bioavailability [3] of 23%.
With `O=CN1Cc2cccc3c(C4=C(c5cnc6ccccn56)C(=O)NC4=O)cn(c23)CC1N1CCOCC1` (configuration not stated) the IC50 [1] was 1.3 nM.
Compound `O=CN1Cc2cccc3c(C4=C(c5cnc6ccccn56)C(=O)NC4=O)cn(c23)CC1N1CCCCC1` (configuration not stated) has an IC50 [1] of 2 nM.
Work on `Oc1ccc2c(c1)OC[C@]1(O)Cc3cc(O)c(O)cc3[C@H]21` [BRAZILIN] yielded an IC50 [4] of 7230 nM.
Compound `Cc1ccc2ncc(C3=C(c4cn5c6c(cccc46)CN(C=O)C(N4CCCCC4)C5)C(=O)NC3=O)n2c1` (configuration not stated) has an IC50 [1] of 5.2 nM and a bioavailability [3] of 45%.
`CCNC(=O)c1nnn(-c2nonc2N)c1CN1CCCCC1` showed an IC50 [5] of 280 nM.
`O=C1Nc2ccccc2C1=Cc1cc(CN2CCN(c3ccccc3Cl)CC2)on1` gave an Activity [6] of 78% and an inhibition [7] of 72%.
In the case of `COc1ccccc1C1=C(c2cn(CCCNC(=O)OC(C)(C)C)c3ncccc23)C(=O)NC1=O`, the IC50 [8] is reported as 7 nM and the Ratio IC50 [9] is reported as 325.
In the case of `Fc1ccc(/C=N/Nc2ncnc3c2cnn3-c2ccccc2)cc1`, the IC50 [10] is reported as 6.2 nM.
In the case of `O=C1NC(=O)C(c2cn(CCCO)c3ncccc23)=C1c1ncc(C(F)(F)F)cc1Cl`, the IC50 [8] is reported as 26 nM and the Ratio IC50 [9] is reported as > 385.
Work on `CCOC(=O)c1c2[nH]c3ccccc3c2c(-c2ccc(NC(=O)CCN(C)C)cc2)c2c(=O)[nH][s+]([O-])c12` (configuration not stated) yielded an IC50 [11] of 2800 nM.
`O=C1NC(=O)C2=C1c1cn(c3ncccc13)CCCCC(O)CCCCn1cc2c2cccnc21` showed an IC50 [2] of 11 nM.
`CCCCC(=O)Nc1n[nH]c2nnc(-c3ccccc3)cc12` gave an IC50 [12] of 4 nM.
In the case of `O=C1NC(=O)C2=C1c1cn(c3ncccc13)CCOCCOCCOCCn1cc2c2cccnc21`, the IC50 [2] is reported as 17 nM.
